From PubChem BioAssay (NCI)
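Five compound concentrations were applied to cells in 96-well plates for 48 hours; endpoints were derived by simple linear interpolation of the resulting dose-response curve. TGI is the concentration that stops growth completely.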

Assays:
Experiment in all cases: inhibition of tumour cell growth, NCI panel, 48 h
786-0 renal = tested on: 786-0 renal
T-47D breast = tested on: T-47D breast
HCT-15 colon = tested on: HCT-15 colon
BT-549 breast = tested on: BT-549 breast
MDA-MB-435 = tested on: MDA-MB-435
HL-60(TB) leukemia = tested on: HL-60(TB) leukemia
SK-MEL-5 melanoma = tested on: SK-MEL-5 melanoma
OVCAR-3 ovarian = tested on: OVCAR-3 ovarian
ACHN renal = tested on: ACHN renal
OVCAR-5 ovarian = tested on: OVCAR-5 ovarian

| SMILES | TGI (786-0 renal) | TGI (T-47D breast) | TGI (HCT-15 colon) | TGI (BT-549 breast) | TGI (MDA-MB-435) | TGI (HL-60(TB) leukemia) | TGI (SK-MEL-5 melanoma) | TGI (OVCAR-3 ovarian) | TGI (ACHN renal) | TGI (OVCAR-5 ovarian) |
| --- | --- | --- | --- | --- | --- | --- | --- | --- | --- | --- |
| CC1(C)O[C@H]2Cn3c(c(C#N)c4ccccc43)[C@H]2O1 | > 100 µM | > 100 µM | > 100 µM | > 100 µM | > 100 µM | > 100 µM | > 100 µM | > 100 µM | > 100 µM | > 100 µM |
| COc1cc(/C=C2/SC(c3ccccc3)N(c3ccc(NC(C)=O)cc3)C2=O)cc(OC)c1OC (stereo not given) | > 100 µM | > 100 µM | > 100 µM | > 100 µM | > 100 µM | > 100 µM | > 100 µM | > 100 µM | > 100 µM | > 100 µM |
| COc1c2cc([N+](=O)[O-])cc1CNC(=O)CN1CCOCCOCCN(CCOCCOCC1)CC(=O)NC2 | > 100 µM | > 100 µM | > 100 µM | > 100 µM | > 100 µM | > 100 µM | > 100 µM | > 100 µM | > 100 µM | > 100 µM |
| C=C(C)C(=O)CC[C@@H](C)[C@H]1[C@@H](OC2OC(CO)C(O)C(O)C2O)C[C@@]2(C)[C@@H]3C[C@H](O)C4C(C)(C)[C@@H](OC5OC(CO)C(O)C(O)C5O)CC[C@@]45C[C@@]35CC[C@]12C (stereo not given in full) | > 100 µM | > 100 µM | > 100 µM | > 100 µM | > 100 µM | > 100 µM | > 100 µM | > 100 µM | > 100 µM | > 100 µM |
| C=C(C)[C@@H]1CC[C@]2(C(=O)O)CC[C@]3(C)[C@H](CC[C@@H]4[C@@]5(C)CC(=O)C(C)(C)[C@@H]5CC[C@]43C)[C@@H]12 | > 25 µM | > 25 µM | > 25 µM | > 25 µM | > 25 µM | 1.61 µM | 13.3 µM | 21.4 µM | > 25 µM | > 25 µM |
| O=c1cc(CNC2CCCC2)[nH]c(=O)[nH]1 | > 100 µM | > 100 µM | > 100 µM | > 100 µM | > 100 µM | > 100 µM | > 100 µM | > 100 µM | > 100 µM | > 100 µM |
| OCC1OC(c2scc3c(=S)nc[nH]c23)C(O)C1O (stereo not given) | > 100 µM | 9.53 µM | > 95.6 µM | > 100 µM | > 100 µM | 21.4 µM | > 73.6 µM | 8.33 µM | > 67.8 µM | > 100 µM |
| O=c1[nH]c(=O)n(C2CC(O)C(CO)O2)cc1I (stereo not given) | > 100 µM | > 100 µM | > 100 µM | > 100 µM | > 100 µM | > 100 µM | > 100 µM | > 100 µM | > 100 µM | > 100 µM |
| c1ccc(C2=NC3(CCCCC3)N(c3nc4ccccc4s3)N2)nc1 | 42.2 µM | 49.6 µM | > 100 µM | 58.2 µM | 63.6 µM | 80.3 µM | 40.6 µM | 51.2 µM | > 100 µM | > 100 µM |
